Each block holds one compound with its values, some of them ahead of it.
Experiments:
[1] = Hydrolysis of 1,3-diethoxyphthalan in the presence of OPA in distilled water at various pH, monitored by GC/MS; assay type: physicochemical
Protocol: The hydrolysis of 1,3-diethoxyphthalan in the presence of OPA in distilled water at various pH was evaluated at room temperature. 1,3-Diethoxyphthalan was added to the OPA solution in distilled water, followed by pH measurement and adjustment with either HCl or NaOH, depending on the pH. The mixtures were stirred at room temperature and monitored by GC/MS at various time intervals.

[2] = Hydrolysis of OPA acetals to OPA in distilled water at various pH, monitored by GC/MS; assay type: physicochemical; conditions: room temperature
Protocol: The reactions of 1,3-dimethoxyphthalan, 1,3-diethoxyphthalan, a PEG 200 pegylated OPA acetal at various pH in distilled water were evaluated at room temperature. The acetals were suspended in distilled water, followed by pH measurement, and pH adjustment with either hydrogen chloride (HCl), phthalic acid, or sodium hydroxide (NaOH), depending on the particular pH. The mixture was stirred at room temperature and monitored by gas chromatograph/mass spectroscopy (GC/MS) at various time intervals.
The hydrolysis rate depends upon pH. Over the range of pH investigated, the lower the pH, the faster the hydrolysis rate.

[3] = Hydrolysis of the tetramethyl acetal of IPA to IPA in water, gas chromatography; assay type: physicochemical; conditions: pH 4.34 (HCl)
Protocol: The process takes place in two staged reactions. In one experiment, the tetramethyl acetal of IPA (0.114 g, 0.504 mmol) was suspended in 100 mL of water including 67 mg of OPA as the internal standard. A relatively large volume of water was used due to the low solubility of IPA. The pH of the water was adjusted to 4.34 with 1% HCl. At various time intervals 0.5 mL of the reaction mixture was sampled and extracted with 1 mL of ethyl acetate (EtOAc). The samples were analyzed with gas chromatography.
The diacetal starting material disappeared within 8 h, but hydrolysis of the second acetal group of the monoacetal took longer period of time.

[4] = Solubility in 30% polyethylene glycol plus water solution; assay type: physicochemical
[5] = cited from earlier work
[6] = pH = 6.95, NaOH adjusted, 120 h
[7] = pH = 6.95, NaOH adjusted, 168 h
[8] = pH = 6.95, NaOH adjusted, 240 h
[9] = pH = 6.95, NaOH adjusted, 312 h
[10] = pH = 6.95, NaOH adjusted, 480 h
[11] = pH = 6.95, NaOH adjusted, 552 h
[12] = pH = 8.9, NaOH adjusted, 1200 h

Structure (SMILES): COC1OC(OC)c2ccccc21 (centres unmarked) [1,3-dimethoxyphthalan]
OPA (w/w %) ([2]; pH = 5.0 (phthalic acid), water, 0 h): 0.000 w/w % | OPA (w/w %) ([2]; pH = 5.0 (phthalic acid), water, 24 h): 0.028 w/w % | OPA (w/w %) ([2]; pH = 5.0 (phthalic acid), water, 120 h): 0.166 w/w % | OPA (w/w %) ([2]; pH = 5.0 (phthalic acid), water, 240 h): 0.301 w/w % | OPA (w/w %) ([2]; pH = 5.0 (phthalic acid), water, 360 h): 0.367 w/w % | OPA (w/w %) ([2]; pH = 5.0 (phthalic acid), water, 480 h): 0.405 w/w % | OPA (w/w %) ([2]; pH = 5.0 (phthalic acid), water, 576 h): 0.417 w/w %

Structure (SMILES): O=Cc1ccccc1C=O [phthalaldehyde, 1,2-benzenedicarboxaldehyde]
Solubility in water [5]: about 5 % by weight

Continued, in another order:

Acetal % ([1]; pH = 6.95, NaOH adjusted, 0 h): 21.8% | OPA % ([1]; pH = 6.95, NaOH adjusted, 0 h): 78.2% | OPA (w %) ([1]; pH = 6.95, NaOH adjusted, 0 h): 0.498 w % | Acetal % ([1]; pH = 6.95, NaOH adjusted, 48 h): 18.1% | OPA % ([1]; pH = 6.95, NaOH adjusted, 48 h): 81.9% | OPA (w %) ([1]; pH = 6.95, NaOH adjusted, 48 h): 0.509 w % | Acetal % [1, 6]: 12.1% | OPA % [1, 6]: 87.9% | OPA (w %) [1, 6]: 0.527 w % | Acetal % [1, 7]: 9.4% | OPA % [1, 7]: 90.6% | OPA (w %) [1, 7]: 0.535 w % | Acetal % [1, 8]: 6.4% | OPA % [1, 8]: 93.6% | OPA (w %) [1, 8]: 0.543 w % | Acetal % [1, 9]: 4.2% | OPA % [1, 9]: 95.8% | OPA (w %) [1, 9]: 0.550 w % | Acetal % [1, 10]: 1.2% | OPA % [1, 10]: 98.8% | OPA (w %) [1, 10]: 0.559 w % | Acetal % [1, 11]: 0.7% | OPA % [1, 11]: 99.3% | OPA (w %) [1, 11]: 0.560 w % | Acetal % ([1]; pH = 8.0, NaOH adjusted, 0 h): 20.9% | OPA % ([1]; pH = 8.0, NaOH adjusted, 0 h): 79.1% | OPA (w %) ([1]; pH = 8.0, NaOH adjusted, 0 h): 0.498 w % | Acetal % ([1]; pH = 8.0, NaOH adjusted, 48 h): 21.6% | OPA % ([1]; pH = 8.0, NaOH adjusted, 48 h): 78.4% | OPA (w %) ([1]; pH = 8.0, NaOH adjusted, 48 h): 0.496 w % | Acetal % ([1]; pH = 8.0, NaOH adjusted, 144 h): 18.6% | OPA % ([1]; pH = 8.0, NaOH adjusted, 144 h): 81.4% | OPA (w %) ([1]; pH = 8.0, NaOH adjusted, 144 h): 0.505 w % | Acetal % ([1]; pH = 8.0, NaOH adjusted, 240 h): 17% | OPA % ([1]; pH = 8.0, NaOH adjusted, 240 h): 83.0% | OPA (w %) ([1]; pH = 8.0, NaOH adjusted, 240 h): 0.510 w % | Acetal % ([1]; pH = 8.0, NaOH adjusted, 312 h): 15.2% | OPA % ([1]; pH = 8.0, NaOH adjusted, 312 h): 84.8% | OPA (w %) ([1]; pH = 8.0, NaOH adjusted, 312 h): 0.515 w % | Acetal % ([1]; pH = 8.0, NaOH adjusted, 480 h): 10.4% | OPA % ([1]; pH = 8.0, NaOH adjusted, 480 h): 89.6% | OPA (w %) ([1]; pH = 8.0, NaOH adjusted, 480 h): 0.530 w % | Acetal % ([1]; pH = 8.0, NaOH adjusted, 576 h): 8.1% | OPA % ([1]; pH = 8.0, NaOH adjusted, 576 h): 91.9% | OPA (w %) ([1]; pH = 8.0, NaOH adjusted, 576 h): 0.537 w % | Acetal % ([1]; pH = 8.0, NaOH adjusted, 720 h): 3.4% | OPA % ([1]; pH = 8.0, NaOH adjusted, 720 h): 96.6% | OPA (w %) ([1]; pH = 8.0, NaOH adjusted, 720 h): 0.551 w % | Acetal % ([1]; pH = 8.0, NaOH adjusted, 840 h): 2% | OPA % ([1]; pH = 8.0, NaOH adjusted, 840 h): 98.0% | OPA (w %) ([1]; pH = 8.0, NaOH adjusted, 840 h): 0.555 w % | Acetal % ([1]; pH = 8.0, NaOH adjusted, 960 h): 1% | OPA % ([1]; pH = 8.0, NaOH adjusted, 960 h): 99.0% | OPA (w %) ([1]; pH = 8.0, NaOH adjusted, 960 h): 0.558 w % | Acetal % ([1]; pH = 8.9, NaOH adjusted, 0 h): 21.8% | OPA % ([1]; pH = 8.9, NaOH adjusted, 0 h): 78.2% | OPA (w %) ([1]; pH = 8.9, NaOH adjusted, 0 h): 0.498 w % | Acetal % ([1]; pH = 8.9, NaOH adjusted, 96 h): 21.4% | OPA % ([1]; pH = 8.9, NaOH adjusted, 96 h): 78.6% | OPA (w %) ([1]; pH = 8.9, NaOH adjusted, 96 h): 0.498 w % | Acetal % ([1]; pH = 8.9, NaOH adjusted, 240 h): 18.8% | OPA % ([1]; pH = 8.9, NaOH adjusted, 240 h): 81.2% | OPA (w %) ([1]; pH = 8.9, NaOH adjusted, 240 h): 0.507 w % | Acetal % ([1]; pH = 8.9, NaOH adjusted, 336 h): 17.2% | OPA % ([1]; pH = 8.9, NaOH adjusted, 336 h): 82.8% | OPA (w %) ([1]; pH = 8.9, NaOH adjusted, 336 h): 0.511 w % | Acetal % ([1]; pH = 8.9, NaOH adjusted, 480 h): 13.8% | OPA % ([1]; pH = 8.9, NaOH adjusted, 480 h): 86.2% | OPA (w %) ([1]; pH = 8.9, NaOH adjusted, 480 h): 0.521 w % | Acetal % ([1]; pH = 8.9, NaOH adjusted, 600 h): 11.0% | OPA % ([1]; pH = 8.9, NaOH adjusted, 600 h): 89.0% | OPA (w %) ([1]; pH = 8.9, NaOH adjusted, 600 h): 0.530 w % | Acetal % ([1]; pH = 8.9, NaOH adjusted, 720 h): 6.7% | OPA % ([1]; pH = 8.9, NaOH adjusted, 720 h): 93.3% | OPA (w %) ([1]; pH = 8.9, NaOH adjusted, 720 h): 0.542 w % | Acetal % ([1]; pH = 8.9, NaOH adjusted, 840 h): 4.6% | OPA % ([1]; pH = 8.9, NaOH adjusted, 840 h): 95.4% | OPA (w %) ([1]; pH = 8.9, NaOH adjusted, 840 h): 0.548 w % | Acetal % ([1]; pH = 8.9, NaOH adjusted, 960 h): 3.0% | OPA % ([1]; pH = 8.9, NaOH adjusted, 960 h): 97.0% | OPA (w %) ([1]; pH = 8.9, NaOH adjusted, 960 h): 0.553 w % | Acetal % [1, 12]: 1.2% | OPA % [1, 12]: 98.8% | OPA (w %) [1, 12]: 0.558 w % | OPA (w/w %) ([2]; pH = 5.4, HCl adjusted, water, 0 h): 0.000 w/w % | OPA (w/w %) ([2]; pH = 5.4, HCl adjusted, water, 2 h): 0.024 w/w % | OPA (w/w %) ([2]; pH = 5.4, HCl adjusted, water, 48 h): 0.056 w/w % | OPA (w/w %) ([2]; pH = 5.4, HCl adjusted, water, 120 h): 0.158 w/w % | OPA (w/w %) ([2]; pH = 5.4, HCl adjusted, water, 240 h): 0.296 w/w % | OPA (w/w %) ([2]; pH = 5.4, HCl adjusted, water, 360 h): 0.525 w/w % | OPA (w/w %) ([2]; pH = 5.4, HCl adjusted, water, 480 h): 0.596 w/w % | OPA (w/w %) ([2]; pH = 6.9, water, 0 h): 0.000 w/w % | OPA (w/w %) ([2]; pH = 6.9, water, 1 h): 0.000 w/w % | OPA (w/w %) ([2]; pH = 6.9, water, 20 h): 0.010 w/w % | OPA (w/w %) ([2]; pH = 6.9, water, 144 h): 0.097 w/w % | OPA (w/w %) ([2]; pH = 6.9, water, 240 h): 0.204 w/w % | OPA (w/w %) ([2]; pH = 6.9, water, 359 h): 0.419 w/w % | OPA (w/w %) ([2]; pH = 6.9, water, 480 h): 0.476 w/w % | OPA (w/w %) ([2]; pH = 10.8, NaOH adjusted, water, 48 h): 0.0048 w/w % | OPA (w/w %) ([2]; pH = 10.8, NaOH adjusted, water, 120 h): 0.0062 w/w % | OPA (w/w %) ([2]; pH = 10.8, NaOH adjusted, water, 480 h): 0.0473 w/w % | OPA (w/w %) ([2]; pH = 10.8, NaOH adjusted, water, 720 h): 0.112 w/w % | OPA (w/w %) ([2]; pH = 10.8, NaOH adjusted, water, 960 h): 0.229 w/w %
Structure (SMILES): CCOC1OC(OCC)c2ccccc21 (centres unmarked) [1,3-diethoxyphthalan]
Dependence of hydrolysis rate on pH ([1]; range of pH investigated): the hydrolysis rate increases with decreasing pH

Mole % in reaction mixture during hydrolysis ([3]; 8 h): 20.3 Mole % | wt % in reaction mixture during hydrolysis ([3]; 8 h): 0.014 wt % | Mole % in reaction mixture during hydrolysis ([3]; 32 h): 66.1 Mole % | wt % in reaction mixture during hydrolysis ([3]; 32 h): 0.045 wt % | Mole % in reaction mixture during hydrolysis ([3]; 54 h): 100 Mole % | wt % in reaction mixture during hydrolysis ([3]; 54 h): 0.068 wt % | Solubility [4]: less than 0.4%
Structure (SMILES): O=Cc1cccc(C=O)c1 [IPA, 1,3-benzenedicarboxaldehyde, reference compound]

Mole % in reaction mixture during hydrolysis ([3]; 8 h): 79.7 Mole % | wt % in reaction mixture during hydrolysis ([3]; 8 h): 0.091 wt % | Mole % in reaction mixture during hydrolysis ([3]; 32 h): 33.9 Mole % | wt % in reaction mixture during hydrolysis ([3]; 32 h): 0.039 wt % | Mole % in reaction mixture during hydrolysis ([3]; 54 h): 0 Mole % | wt % in reaction mixture during hydrolysis ([3]; 54 h): 0 wt %
Structure (SMILES): COC(OC)c1cccc(C=O)c1 [Monoacetal]

— US7291649B2, “Forming germicidal aromatic dialdehydes with acetals” (Ethicon, Inc., priority 2005, dated 2007)
